Tests used:
[1] = target: Nicotinic acetylcholine receptor alpha3/betaX; assay: Stimulation of cation efflux in Nicotinic acetylcholine receptor alpha3-betaX subtype expressing IMR-32 cells; format: functional, cell-based, Homo sapiens
[2] = target: T1, Neuronal acetylcholine receptor; alpha4/beta2 (Homo sapiens, UniProt P17787+P43681); assay: Maximal efficacy relative to 100 uM nicotine in human nAChR alpha4-beta2 expressing K177 cells; format: cell-based
[3] = target: Neuronal acetylcholine receptor; alpha4/beta2 (Rattus norvegicus, UniProt P09483+P12390); assay: Binding affinity towards nAChR (alpha4-beta2) by the displacement of [3H](-)-cytisine in whole rat brain membranes.; format: cell membranes
Chain of Neuronal acetylcholine receptor; alpha4/beta2 (Rattus norvegicus, UniProt P09483+P12390) (P09483 whole entry): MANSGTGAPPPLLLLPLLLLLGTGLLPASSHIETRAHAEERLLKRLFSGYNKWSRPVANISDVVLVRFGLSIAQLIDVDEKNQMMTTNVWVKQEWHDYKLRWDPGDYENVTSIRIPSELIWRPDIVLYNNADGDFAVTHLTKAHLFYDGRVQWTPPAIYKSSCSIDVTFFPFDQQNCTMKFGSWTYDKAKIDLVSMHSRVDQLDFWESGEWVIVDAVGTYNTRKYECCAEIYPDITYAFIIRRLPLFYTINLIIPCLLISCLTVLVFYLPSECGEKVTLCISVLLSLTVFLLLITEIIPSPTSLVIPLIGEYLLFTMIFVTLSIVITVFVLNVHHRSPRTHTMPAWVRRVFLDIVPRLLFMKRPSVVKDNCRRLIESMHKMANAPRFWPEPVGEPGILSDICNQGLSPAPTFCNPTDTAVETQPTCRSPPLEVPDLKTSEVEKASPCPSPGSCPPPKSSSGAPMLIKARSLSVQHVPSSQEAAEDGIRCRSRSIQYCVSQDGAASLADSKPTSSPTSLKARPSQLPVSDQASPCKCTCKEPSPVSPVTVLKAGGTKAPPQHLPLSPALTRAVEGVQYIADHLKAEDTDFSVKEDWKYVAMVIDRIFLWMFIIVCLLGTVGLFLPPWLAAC
Chain of Neuronal acetylcholine receptor; alpha4/beta2 (Rattus norvegicus, UniProt P09483+P12390) (P12390 whole entry): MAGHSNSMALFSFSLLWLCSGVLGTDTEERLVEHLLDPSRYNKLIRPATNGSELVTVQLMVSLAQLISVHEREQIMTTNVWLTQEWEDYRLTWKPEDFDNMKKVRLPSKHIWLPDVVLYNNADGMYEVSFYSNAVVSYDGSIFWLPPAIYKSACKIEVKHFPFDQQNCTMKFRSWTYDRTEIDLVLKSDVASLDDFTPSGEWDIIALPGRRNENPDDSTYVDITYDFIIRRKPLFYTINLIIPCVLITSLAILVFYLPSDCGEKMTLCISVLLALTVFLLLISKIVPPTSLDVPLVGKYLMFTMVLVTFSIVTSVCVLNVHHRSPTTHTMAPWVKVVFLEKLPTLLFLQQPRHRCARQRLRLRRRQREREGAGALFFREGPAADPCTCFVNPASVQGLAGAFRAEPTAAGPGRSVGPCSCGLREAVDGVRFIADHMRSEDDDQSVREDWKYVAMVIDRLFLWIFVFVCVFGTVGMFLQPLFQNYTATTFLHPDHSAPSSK

[4] = target: T1, Neuronal acetylcholine receptor; alpha4/beta2; assay: Stimulation of cation efflux in human nAChR alpha4-beta2 expressing K177 cells; format: cell-based
[5] = target: T1, Neuronal acetylcholine receptor; alpha4/beta2; assay: Inhibition of cation efflux in human nAChR alpha4-beta2 expressing K177 cells; format: cell-based
[6] = target: Nicotinic acetylcholine receptor alpha3/betaX (Homo sapiens) (UniProt P11230+P17787+P30926+P32297+Q05901); assay: Maximal efficacy relative to 100 uM nicotine in Nicotinic acetylcholine receptor alpha3-betaX subtype expressing IMR-32 cells; format: cell-based
[7] = target: T1, Neuronal acetylcholine receptor; alpha4/beta2; conditions: IMR-32
Description: Maximal efficacy in nAChR subtype human alpha3betaX, expressed in IMR-32 cells

[8] = target: T1, Neuronal acetylcholine receptor; alpha4/beta2; conditions: K177
Description: Maximal efficacy in human nAChR alpha4-beta2 expressing K177 cells

T1 sequence (P17787 whole entry): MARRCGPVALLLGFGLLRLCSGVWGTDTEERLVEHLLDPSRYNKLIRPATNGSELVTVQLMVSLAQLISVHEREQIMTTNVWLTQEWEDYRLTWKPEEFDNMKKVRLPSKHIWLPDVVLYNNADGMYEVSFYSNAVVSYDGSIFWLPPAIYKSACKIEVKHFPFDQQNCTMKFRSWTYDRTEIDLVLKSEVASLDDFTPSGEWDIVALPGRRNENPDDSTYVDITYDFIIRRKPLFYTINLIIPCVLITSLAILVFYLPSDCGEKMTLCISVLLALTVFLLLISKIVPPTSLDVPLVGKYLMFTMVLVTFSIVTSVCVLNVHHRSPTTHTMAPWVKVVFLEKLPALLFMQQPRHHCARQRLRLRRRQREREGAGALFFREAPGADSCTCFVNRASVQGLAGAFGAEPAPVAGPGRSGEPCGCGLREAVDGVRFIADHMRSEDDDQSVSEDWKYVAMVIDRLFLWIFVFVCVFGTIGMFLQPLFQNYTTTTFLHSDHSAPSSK
T1 sequence (P43681 whole entry): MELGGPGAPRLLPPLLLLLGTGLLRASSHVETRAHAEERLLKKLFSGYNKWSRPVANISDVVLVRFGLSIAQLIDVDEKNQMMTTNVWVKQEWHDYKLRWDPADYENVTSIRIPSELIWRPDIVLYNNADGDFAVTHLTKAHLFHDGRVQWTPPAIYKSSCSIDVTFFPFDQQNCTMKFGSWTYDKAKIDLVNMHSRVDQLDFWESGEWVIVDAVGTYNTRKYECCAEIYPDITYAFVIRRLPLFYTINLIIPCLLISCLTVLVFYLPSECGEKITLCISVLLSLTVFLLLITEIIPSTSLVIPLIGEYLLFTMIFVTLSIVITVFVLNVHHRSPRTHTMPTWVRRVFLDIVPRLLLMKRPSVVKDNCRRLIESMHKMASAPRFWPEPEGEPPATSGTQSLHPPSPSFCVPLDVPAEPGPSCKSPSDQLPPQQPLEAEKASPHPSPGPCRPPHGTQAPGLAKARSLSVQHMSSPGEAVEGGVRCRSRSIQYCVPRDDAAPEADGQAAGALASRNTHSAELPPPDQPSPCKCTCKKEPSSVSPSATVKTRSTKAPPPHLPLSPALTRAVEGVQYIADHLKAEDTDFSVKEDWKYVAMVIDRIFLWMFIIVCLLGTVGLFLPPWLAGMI

SMILES	EC50 [1] [µM]	Max [2] [%]	Ki [3] [µM]	EC50 [4] [µM]	also measured
CN1CCC[C@H]1COc1ccc(Br)nc1	> 1000	42.5	0.00191	2.6	
CCCCc1cncc(OC[C@@H]2CCCN2C)c1	> 1000	14	0.00016	> 1000	IC50 [5]: 0.64 µM
CN1CCC[C@H]1COc1cncc([N+](=O)[O-])c1			0.00465		
CCCc1cncc(OC[C@@H]2CCCN2C)c1	> 1000	13	0.00012	> 1000	IC50 [5]: 2.4 µM
Cc1ccncc1OC[C@@H]1CCCN1C	> 1000	73.9	0.00412	2.1	
CN1CCC[C@H]1COc1cncc(C(F)(F)F)c1			0.00183		
Cc1ncccc1OC[C@@H]1CCCN1C	18.2	26.7	0.0229	4.8	Max [6]: 27.7%
CN1CCC[C@H]1COc1cncc(F)c1			0.00069		
CN1CCC[C@H]1COc1cc(Br)c[n+]([O-])c1			0.0348		
CN1CCC[C@H]1COc1cccnc1Br	> 1000	12.3	0.451	> 1000	
Cc1cncc(OC[C@@H]2CCCN2C)c1	2.9	77	0.00048	2.3	
CN1CCC[C@H]1COc1ccc(CO)nc1			0.0974		
CN1CCC[C@H]1COc1cncc(N)c1			0.00063		
CN1CCC[C@H]1COc1ccc(F)nc1			0.00256		
CN1CCC[C@H]1COc1ccc(Cl)nc1	27.1	108	0.00064	1.4	
CC(C)Cc1cncc(OC[C@@H]2CCCN2C)c1			0.00021		
CN1CCC[C@H]1COc1cccnc1[N+](=O)[O-]			9		
CCNc1cncc(OC[C@@H]2CCCN2C)c1			0.0037		
CN1CCC[C@H]1COc1cnccc1Br	> 1000	14.1	0.028	> 1000	
CN1CCC[C@H]1COc1cccnc1	19.4	100	0.00015		Max [6]: 73.2%
CCCCCCc1cncc(OC[C@@H]2CCCN2C)c1			0.00032		
CN1CCC[C@H]1COc1cccnc1I			0.606		
CCc1cncc(OC[C@@H]2CCCN2C)c1	> 1000	33.7	0.00032	1	
CN1CCC[C@H]1COc1cncc(Cl)c1			0.0006		
CN1CCC[C@H]1c1cccnc1					Max [7]: 100%; Max [8]: 100%
CCN(CC)C(=O)c1ccncc1OC[C@@H]1CCCN1C			2.83		
CN1CCC[C@H]1COc1cncc(Br)c1		41.8	0.00027	5.95	
Cc1ccc(OC[C@@H]2CCCN2C)cn1	13.4	54.4	0.00126	2.2	
CSc1ncccc1OC[C@@H]1CCCN1C			0.559		
